From ChEMBL document CHEMBL5604062, “ASAP - ZIKV NS2B-NS3 protease fluorescence dose response” (2024)
Several values for one entry are separate records, joined by “and”; a condition that tells them apart may be missing. Equal values may be shown once.

Target: Nonstructural protein 3 (Zika virus, UniProt A0A024AXB9)
Test: Functional biochemical assay to identify treatments for viral infectious disease that targets Zika NS2B-NS3 protease. Utilizing a direct enzyme activity measurement method, reading the fluorescence intensity is used to characterize the relative potency of inhibitors as IC50.
Set-up: species or system PRVABC59

Nonstructural protein 3, sequence (A0A024AXB9 whole entry): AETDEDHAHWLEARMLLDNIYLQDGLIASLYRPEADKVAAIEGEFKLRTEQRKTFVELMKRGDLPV

Structure (SMILES)	IC50
Nc1nc(S(=O)(=O)c2ccccc2)c(Cl)s1	> 99.5 µM
CCOCCNC(=O)[C@H](Nc1ccc2c(c1)CNC2)c1cc(Cl)cc2[nH]ncc12	0.06 µM and 0.042 µM
CCn1ccnc(N2CC[C@H](c3cccc(C#N)c3)C2)c1=O	> 99.5 µM
NCc1cccc(NC(=O)c2c(C(F)(F)F)nc3n2CCCC3)c1	> 99.5 µM
CN1CC[C@H](C2CCN(S(=O)(=O)c3cc(F)cc(C(=O)O)c3)CC2)C1	> 99.5 µM
NCc1cccc(NC(=O)[C@H](NC(=O)OCc2ccccc2)C2CCNCC2)c1	> 99.5 µM
COc1nnc(C(F)(F)F)cc1-c1ccc2[nH]c(C(=O)O)cc2c1	> 99.5 µM
c1cncc(-c2cccc(NCc3c[nH]c4ccccc34)c2)c1	> 99.5 µM
CCc1[nH]c(-c2ccccc2)cc1C(=O)Nc1cccc(-c2nnn[nH]2)c1	> 99.5 µM
O=C(Nc1ccc2c(c1)CNC2)c1cc(Cl)cc2[nH]c(-c3ccc(F)cc3O)nc12	0.087 µM and 0.058 µM
NCc1cccc(NC(=O)[C@@H](NC(=O)OCc2ccccc2)C2CCN(Cc3cccnc3)CC2)c1	> 99.5 µM
NCc1cccc(N(C(=O)CNC(=O)OCc2ccccc2)c2ccc(OCc3ccccc3)cc2)c1	> 99.5 µM
CCOc1cccc(-c2ccc(S(=O)(=O)Nc3ccc(Cl)cc3C(=O)O)cc2)c1	14.7 µM and 13.8 µM
O=C(O)c1cc(Cl)ccc1NS(=O)(=O)c1ccc(OCc2cccnn2)cc1	> 99.5 µM
NS(=O)(=O)c1cccc(-c2ccc(S(=O)(=O)Nc3ccc(Cl)cc3C(=O)O)cc2)c1	> 99.5 µM
COCCN(C)Cc1ccnc(NC(=O)c2cc(C3CC3)n(C)c2C)c1	> 25 µM
CC(C)NC(=O)[C@H](Nc1ccc2c(c1)CNC2)c1cc(Cl)cc2[nH]ncc12	0.086 µM and 0.054 µM and 0.124 µM and 0.138 µM and 0.089 µM
NCc1cccc([C@@H]2C[C@H]2c2cc(Cl)cc(NC(=O)OCc3ccccc3)c2)c1	18.1 µM and 11.3 µM
COC[C@H](NC(=O)c1cc(Cl)cc(NC(=O)OCc2ccccc2)c1)c1nnn[nH]1	> 99.5 µM
NCc1cccc(NC(=O)[C@H](NC(=O)OCc2ccccc2)c2cccc(OCC3CCOCC3)c2)c1	> 99.5 µM
NCc1cccc(NC(=O)[C@]2(NC(=O)OCc3ccccc3)CCOc3ccccc32)c1	> 99.5 µM
NCc1cccc(NC(=O)[C@H](NC(=O)Cn2cccn2)c2ccc(OCc3ccccc3)cc2)c1	> 99.5 µM
CCn1cc(-c2cncc(OC)c2)nc(N2CC[C@@H](CO)C2)c1=O	> 99.5 µM
CCNC(=O)c1ccc2c(c1)nc(N1CC[C@H](CO)C1)c(=O)n2CC	> 99.5 µM
O=C(Nc1ccc2c(c1)CNC2)c1cc(F)cc(-c2cccnc2)c1	0.09 µM and 0.087 µM
C[C@@H](N)c1cccc(NC(=O)[C@H]2[C@H]3CCCCC[C@H]3[C@H]2NC(=O)OCc2ccccc2)c1	13.1 µM and 12.9 µM

Continued, values first:

IC50	Structure (SMILES)
> 25 µM	O=C1NS(=O)(=O)c2ccc(NC(=O)c3cc(Cl)cc4[nH]ncc34)cc21
18.7 µM	O=C(Nc1ccc2c(c1)CNC2)c1cc(=O)[nH]c2c(F)cccc12
> 25 µM	O=C(Nc1cc(-c2cccnc2)ccn1)c1cnc(C2CC2)s1
0.835 µM	O=C(Nc1ccc2c(c1)CNCCO2)c1cc(Cl)cc2[nH]ncc12
10.2 µM	Cc1cc(NC(=O)OCc2ccccc2)cc(C(=O)Nc2cccc(CN)c2)c1
6.93 µM	NCc1cccc(NC(=O)[C@H](NC(=O)OCc2ccccc2)c2ccc(OCc3ccccc3)cc2)c1
> 25 µM	C[C@](N)(C(=O)Nc1ccc2c(c1)C(=O)OC2)c1cccs1
> 25 µM	Cc1c(C(=O)Nc2cc(-c3cccnc3)ccn2)cnn1C1CC1
1.07 µM	O=C(Nc1ccc2c(c1)CNC2)c1cc(C(F)(F)F)cc2[nH]ccc12
44.7 µM	Cc1c(CN)cccc1NC(=O)c1cc(Cl)cc(NC(=O)OCc2ccccc2)c1
27.3 µM	NCc1cccc(NC(=O)[C@@H](NC(=O)OCc2ccccc2)c2cccc(OCC3CCC3)c2)c1
> 25 µM	O=C(Nc1cc(-c2cccnc2)ccn1)c1cn([C@H]2CCCNC2)nn1
83.2 µM	CN(C)c1ccc(/C=C/C(=O)C(=O)N2CCOCC2)cc1
39.4 µM	NCc1cccc(NC(=O)c2cccc(Oc3ccc(Cl)c(Cl)c3)n2)c1
15.7 µM	O=C(Nc1ccc2c(c1)CNC2)N1CCC2(C1)CC(F)(F)C2
1.61 µM	CCc1cc(C(=O)Nc2ccc3c(c2)CNC3)cc2cn[nH]c12
